Test results: patent US10881099B2, “Process to improve crop yield” (priority 2016, dated 2021)

Columns and labels:
[1] = system: anthracnose (Colletotrichum acutatum), naturally infected plants; experiment: Example 2: pre-plant dip of naturally infected strawberry plants (Nursery 2), field trial; format: in vivo; details: cv. Portola (Nursery 2); for DI: Disease incidence (average) / DS: Disease severity, by ranking (average) 0-4 / LSI: Leaf spot incidence (average): after four weeks; for W: Weight (average) / Y: Yield (average): after six weeks
[2] = system: azoxystrobin (QoI)-sensitive (S) strains of Colletotrichum acutatum; experiment: Example 2: pre-plant dip of strawberry plants inoculated with azoxystrobin-sensitive isolate, field trial; format: in vivo; details: for DI: Disease incidence (average) / DS: Disease severity, by ranking (average) 0-4: after four weeks; for W: Weight (average) / Y: Yield (average): after six weeks
[3] = system: azoxystrobin (QoI)-resistant (R) strains of Colletotrichum acutatum; experiment: Example 2: pre-plant dip of strawberry plants inoculated with azoxystrobin-resistant isolate, field trial; format: in vivo; details: for DI: Disease incidence (average) / DS: Disease severity, by ranking (average) 0-4: after four weeks; for W: Weight (average) / Y: Yield (average): after six weeks
[4] = system: mixture of four Colletotrichum acutatum isolates, two sensitive and two resistant to QoI fungicides; experiment: Example 3: dip treatments on Florida Radiance transplants for control of Colletotrichum acutatum; format: in vivo; details: cv. Florida Radiance; for Plant diameter / Plant diameter compared to the non-treated control (in words): 35 DAP; for Yield (marketable fruit): seven harvests
[5] = system: strawberry plants (two plant cultivars); details: in vivo
Procedure: Plants were evaluated periodically for disease and phytotoxicity over the course of the trial. As plants develop disease symptoms, fungal isolations were done from diseased tissue to validate the symptoms as anthracnose. For this, pieces of crown and leaf tissues from the margins between diseased and healthy tissue were surface-sterilized with sodium hypochlorite and rinsed with sterile, distilled water. A small sample of this plant tissue was removed, cut into pieces, and plated onto 10-cm potato dextrose agar media plates amended with ampicillin and rifampicin to inhibit bacterial growth. Plates were incubated for 5-6 days at 25° C., and fungal colonies were identified using morphological characteristics. A subset of fungal colonies was confirmed by PCR using species-specific primers for Colletotrichum acutatum (Förster and Adaskaveg, Phytopathology (1999) 89 1056-1065).

[6] = system: fungi within the Ascomycota (e.g. Botrytis and Colletotrichum spp.) and Zygomycota (e.g. Rhizopus stolonifer); details: for most of these organisms; cited from earlier work
Colletotrichum acutatum = experiment: Example 1: pre-plant dip of cv. Portola baby strawberry plants with natamycin, fruit yield after 6 weeks; format: in vivo
Procedure: Baby strawberry plants of cv. Portola were either inoculated or non-inoculated (naturally infected). Inoculation was done by dipping plants for 4 minutes in conidial suspensions of Colletotrichum acutatum, and then drip-dried. Plants were then stored for 8 h at 20° C., or 3 days at 5° C. […] The plants were then planted in different rows for each treatment, one feet apart and the yield was evaluated for fruit yield after 6 weeks. See below Table 1 for results.

[7] = 4 min dip, rates/150 gal: Actinovate 24 oz., azoxystrobin 8 fl. oz., Bravo 24 fl. oz., Switch 8 oz.
[8] = rates/150 gal: Actinovate 24 oz., azoxystrobin 8 fl. oz., Bravo 24 fl. oz., Switch 8 oz.
[9] = cv. Fronteras (Nursery 1), 4 min dip, rates/150 gal: Actinovate 24 oz., azoxystrobin 8 fl. oz., Bravo 24 fl. oz., Switch 8 oz.
[10] = cv. Fronteras (Nursery 1), rates/150 gal: Actinovate 24 oz., azoxystrobin 8 fl. oz., Bravo 24 fl. oz., Switch 8 oz.
[11] = cv. Portola (Nursery 1), 4 min dip, rates/150 gal: Actinovate 24 oz., azoxystrobin 8 fl. oz., Bravo 24 fl. oz., Switch 8 oz.
[12] = cv. Portola (Nursery 1), rates/150 gal: Actinovate 24 oz., azoxystrobin 8 fl. oz., Bravo 24 fl. oz., Switch 8 oz.
[13] = natamycin 26.6 fl. oz./100 gal. (dipped in the field)
[14] = natamycin 26.6 fl. oz./100 gal. (dipped indoors to avoid sunlight)
[15] = natamycin 13.3 oz. per 150 gal.
[16] = natamycin 26.6 oz. per 150 gal.
[17] = cv. Fronteras (Nursery 1), natamycin 13.3 oz. per 150 gal.
[18] = cv. Fronteras (Nursery 1), natamycin 26.6 oz. per 150 gal.
[19] = cv. Portola (Nursery 1), natamycin 13.3 oz. per 150 gal.
[20] = cv. Portola (Nursery 1), natamycin 26.6 oz. per 150 gal.

CO/C=C(/C(=O)OC)c1ccccc1Oc1cc(Oc2ccccc2C#N)ncn1 [Azoxystrobin]
DI: Disease incidence (average) [1, 7]: 41.7%
DS: Disease severity, by ranking (average) 0-4 [1, 7]: 0.5
LSI: Leaf spot incidence (average) [1, 7]: 0.5 number of spots
W: Weight (average) [1, 8]: 9.8 g per fruit
Y: Yield (average) [1, 8]: 1114.8 g per treated plot
DI: Disease incidence (average) [2, 9]: 7.5%
DS: Disease severity, by ranking (average) 0-4 [2, 9]: 0.2
W: Weight (average) [2, 10]: 10.68 g per fruit
Y: Yield (average) [2, 10]: 378.1 g per treated plot
DI: Disease incidence (average) [2, 11]: 33.1%
DS: Disease severity, by ranking (average) 0-4 [2, 11]: 0.8
W: Weight (average) [2, 12]: 6.4 g per fruit
Y: Yield (average) [2, 12]: 157.7 g per treated plot
DI: Disease incidence (average) [3, 9]: 100.0%
DS: Disease severity, by ranking (average) 0-4 [3, 9]: 2.9
W: Weight (average) [3, 10]: 7.9 g per fruit
Y: Yield (average) [3, 10]: 16.4 g per treated plot
DI: Disease incidence (average) [3, 11]: 100.0%
DS: Disease severity, by ranking (average) 0-4 [3, 11]: 4.0
W: Weight (average) [3, 12]: 0.0 g per fruit
Y: Yield (average) [3, 12]: 0.0 g per treated plot

C[C@@H]1C/C=C/C=C/C=C/C=C/[C@H](O[C@@H]2O[C@H](C)[C@@H](O)[C@H](N)[C@@H]2O)C[C@@H]2O[C@](O)(C[C@@H](O)C[C@H]3O[C@@H]3/C=C/C(=O)O1)C[C@H](O)[C@H]2C(=O)O [Natamycin, natamycin]
Plant diameter [4, 13]: 5.7 bcd in
Plant diameter [4, 14]: 5.9 abc in
Plant diameter compared to the non-treated control (in words) ([4]; natamycin dipped in the field: excepted from the treatments that significantly increased plant diameter): With the exception of natamycin (dipped in the field)
Plant diameter compared to the non-treated control (in words) ([4]; natamycin: treatment dipped indoors): significantly increased plant diameter
Disease incidence (diseased plants, dead+wilted) ([4]; 42 DAP, natamycin 26.6 fl. oz./100 gal. (dipped in the field)): 2.5 de %
Disease incidence (diseased plants, dead+wilted) ([4]; 42 DAP, natamycin 26.6 fl. oz./100 gal. (dipped indoors to avoid sunlight)): 0.0 e %
Disease incidence (diseased plants, dead+wilted) ([4]; 42 DAP, natamycin 26.6 fl. oz./100 gal. (dipped indoors to avoid sunlight), listed as natamycin): 0.0%
Disease incidence compared to the non-treated control (in words) ([4]; 42 DAP, natamycin: both treatments (field and indoors)): reduced disease incidence compared to the non-treated control
Yield compared to the non-treated control (in words) ([4]; natamycin: dipped in the field): higher yields than the non-treated control
Yield (marketable fruit) [4, 13]: 2924 abc lb./A
Yield (marketable fruit) [4, 14]: 2547 bcde lb./A
phytotoxicity [5]: no phytotoxicity is observed
DI: Disease incidence (average) [1, 15]: 57.5%
DS: Disease severity, by ranking (average) 0-4 [1, 15]: 0.9
LSI: Leaf spot incidence (average) [1, 15]: 0.6 number of spots
DI: Disease incidence (average) [1, 16]: 53.7%
DS: Disease severity, by ranking (average) 0-4 [1, 16]: 0.7
LSI: Leaf spot incidence (average) [1, 16]: 0.4 number of spots
W: Weight (average) [1, 15]: 8.7 g per fruit
Y: Yield (average) [1, 15]: 714.4 g per treated plot
W: Weight (average) [1, 16]: 8.7 g per fruit
Y: Yield (average) [1, 16]: 742.5 g per treated plot
DI: Disease incidence (average) [2, 17]: 37.5%
DS: Disease severity, by ranking (average) 0-4 [2, 17]: 0.8
DI: Disease incidence (average) [2, 18]: 32.5%
DS: Disease severity, by ranking (average) 0-4 [2, 18]: 0.6
W: Weight (average) [2, 17]: 8.14 g per fruit
Y: Yield (average) [2, 17]: 161.8 g per treated plot
W: Weight (average) [2, 18]: 8.31 g per fruit
Y: Yield (average) [2, 18]: 161.1 g per treated plot
DI: Disease incidence (average) [2, 19]: 32.5%
DS: Disease severity, by ranking (average) 0-4 [2, 19]: 0.8
DI: Disease incidence (average) [2, 20]: 27.5%
DS: Disease severity, by ranking (average) 0-4 [2, 20]: 0.4
W: Weight (average) [2, 19]: 7.9 g per fruit
Y: Yield (average) [2, 19]: 224.1 g per treated plot
W: Weight (average) [2, 20]: 7.0 g per fruit
Y: Yield (average) [2, 20]: 188.4 g per treated plot
DI: Disease incidence (average) [3, 17]: 37.5%
DS: Disease severity, by ranking (average) 0-4 [3, 17]: 0.8
DI: Disease incidence (average) [3, 18]: 54.2%
DS: Disease severity, by ranking (average) 0-4 [3, 18]: 1.3
W: Weight (average) [3, 17]: 8.9 g per fruit
Y: Yield (average) [3, 17]: 261.7 g per treated plot
W: Weight (average) [3, 18]: 9.3 g per fruit
Y: Yield (average) [3, 18]: 145.2 g per treated plot
DI: Disease incidence (average) [3, 19]: 82.5%
DS: Disease severity, by ranking (average) 0-4 [3, 19]: 2.2
DI: Disease incidence (average) [3, 20]: 29.4%
DS: Disease severity, by ranking (average) 0-4 [3, 20]: 0.4
W: Weight (average) [3, 19]: 7.9 g per fruit
Y: Yield (average) [3, 19]: 112.4 g per treated plot
W: Weight (average) [3, 20]: 8.6 g per fruit
Y: Yield (average) [3, 20]: 235.0 g per treated plot
efficacy when plants are inoculated with azoxystrobin-resistant isolates (in words) ([3]; pre-plant dip): very effective
minimum inhibitory concentration [6]: < 10 ppm
Average weight per individual strawberry (Colletotrichum acutatum; natamycin 13.3 oz./150 gallon): 8.7 g
Average weight per individual strawberry (Colletotrichum acutatum; natamycin 26.6 oz./150 gallon): 8.7 g
